# Earlier results, collected in US20100284993A1, “Enhancing the Efficacy of Anti-Infective Therapeutics” (priority 2007, published 2010).
# Columns and labels:
# [1] = in vivo
# [2] = target: peptidyl prolyl isomerases of the protozoan parasite Trypanosoma cruzi (Trypanosoma cruzi, UniProt Q09734)
# [3] = parameters: unit not given here; conditions: in vivo
# [4] = system: Pseudomonas aeruginosa
# peptidyl prolyl isomerases of the protozoan parasite Trypanosoma cruzi, sequence (Q09734 30-196): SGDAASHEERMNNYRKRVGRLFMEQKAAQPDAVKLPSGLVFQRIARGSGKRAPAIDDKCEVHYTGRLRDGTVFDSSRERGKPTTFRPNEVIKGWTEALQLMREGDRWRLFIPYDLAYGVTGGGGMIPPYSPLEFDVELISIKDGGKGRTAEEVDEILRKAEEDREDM
smiles,measurement,setting,value
C=CC[C@@H]1/C=C(\C)C[C@H](C)C[C@H](OC)[C@H]2O[C@@](O)(C(=O)C(=O)N3CCCC[C@H]3C(=O)O[C@H](/C(C)=C/[C@@H]3CC[C@@H](O)[C@H](OC)C3)[C@H](C)[C@@H](O)CC1=O)[C@H](C)C[C@@H]2OC [FK506],distribution into protected cellular compartments in the blood,[1],72-98%
"CC[C@@H]1/C=C(\C)[C@@H](O)[C@H](C)C[C@H](OC)[C@H]2O[C@@](O)(C(=O)C(=O)N3CCCC[C@H]3C(=O)O[C@H](/C(C)=C/[C@@H]3CC[C@@H](O)[C@H](OC)C3)[C@H](C)[C@@H](O)CC1=O)[C@H](C)C[C@@H]2OC [L-685,818]",binding preference for T. cruzi peptidyl prolyl isomerases over human FKBP,[2],preferentially binds
C[C@@H](O)[C@H]1C(=O)N2C(C(=O)O)=C(S[C@@H]3CN[C@H](C(=O)Nc4cccc(C(=O)O)c4)C3)[C@H](C)[C@H]12 [ertapenem],half life,[3],four
same,effectiveness against Pseudomonas aeruginosa,[4],not effective
C[C@@H](O)[C@H]1C(=O)N2C(C(=O)O)=C(S[C@@H]3CN[C@H](C(=O)N(C)C)C3)[C@H](C)[C@H]12 [meropenem],elimination half life,[3],one
